The text below walks through data of paper PMC11510342, “Synthesis, Characterization, Bioavailability and Antimicrobial Studies of Cefuroxime-Based Organic Salts and Ionic Liquids” (Pharmaceutics, 2024).

The conditions of series [1]: cited from earlier work.
For series [2], the system named is Pseudomonas aeruginosa (ATCC 27853). As to the kind of experiment: Antimicrobial activity, growth inhibition (OD 600 nm). In kind it is cell-based. The settings on record: for IC50: read-out: IC50 P. aeruginosa.
Description: (§1) The antimicrobial activity of compounds was evaluated against Bacillus subtilis (ATCC 6633), Pseudomonas aeruginosa (ATCC 27853) and Escherichia coli (ATCC 25922) grown in Lysogeny broth (Sigma, Darmstadt, Germany).
Series [3] has as its system Bacillus subtilis (ATCC 6633). Described as above. In kind it is cell-based. As to conditions: for IC50: read-out: IC50 B. subtilis.
Description: as §1
The next series concerns 3T3 murine fibroblasts. As to the kind of experiment: Cytotoxicity on 3T3 cells (MTT assay). It is filed as cell-based. As to conditions: 24 h; for IC50: read-out: IC50 for toxicity on 3T3 murine fibroblasts; for Toxicity to 3T3 murine fibroblasts compared with the original drug (CFX): 100 µM. On the technique in general: Tetrazolium assays rely on reduction of a dye to a coloured formazan, in cell work by metabolically active cells.

Series [4] relates to Escherichia coli (ATCC 25922). As to the kind of experiment: Antimicrobial activity, growth inhibition (OD 600 nm). In kind it is cell-based. As to conditions: for IC50: read-out: IC50 E. coli.
Description: as §1
Series [5] is described as follows: Octanol-water partition studies (Kow). In kind it is physicochemical.
Series [6] is described as follows: Water solubility at 37 °C by consecutive addition of water until full dissolution. In kind it is physicochemical. How it is done:
The solubility of the prepared cefuroxime OSILs was determined by adding known volumes of water consecutively to a certain amount of CFX-OSILs at 37 °C until full dissolution was observed. Figure 3 presents the maximum water solubility values of the prepared CFX-OSILs.

The mark [7] stands for this setting: Pseudomonas aeruginosa, ATCC27853, 6 h, 0.03–100 µM, interval in brackets.
Setting [8] is: Bacillus subtilis, ATCC6633, 6 h, 0.03–100 µM, interval in brackets.
The mark [9] stands for this setting: Mus musculus, Fibroblast, MTT, 1–100 µM.
Where [10] appears, read: Escherichia coli, ATCC25922, 6 h, 0.03–100 µM, interval in brackets.
Where [11] appears, read: 6 h, 0.03–100 µM, interval in brackets.

Where two headings read alike, the source gives them in different places.

Description for 3T3 murine fibroblasts: Cytotoxic activities were evaluated on 3T3 cells previously acquired from Leibniz Institute DSMZ, Germany biobank (ACC173). Cells were cultured in Dulbecco’s Modified Eagle’s medium: Nutrient Mix F-12 (DMEM/F-12) (Merck, Darmstadt, Germany) supplemented with 10% fetal bovine serum (Gibco, Grand Island, NY, USA), 100 IU/mL penicillin and 100 μg/mL streptomycin (Sigma, St. Louis, MO, USA). For subculture, 3T3 cells were dissociated using trypsin-EDTA (Sigma, USA) with a split 1:5 ratio and seeded into Petri dishes with 25 cm^2 of growth area. Culture medium was replaced every 2 days until cells reached total confluence after 3–5 days of initial seeding. Cells were maintained in a humidified atmosphere with 5% CO2 at 37 °C. The effects on 3T3 cells’ viability were evaluated after cells reached total confluence. […] The effects were estimated via MTT (Sigma, St. Louis, MO, USA) assays as a cellular metabolic activity colorimetric analysis. Results were expressed in percentage of control (%).

As to `CO/N=C(\C(=O)N[C@@H]1C(=O)N2C(C(=O)OC(C)OC(C)=O)=C(COC(N)=O)CS[C@H]12)c1ccco1` (some centres unmarked) [cefuroxime axetil], the “Time of peak concentration in serum” value in series [1] (after oral administration) was “approximately 2 h”.

Consider `CCCCCCCCCC[n+]1ccccc1` [[C10Py]Br, reference compound], for which the IC50 – broadly, the concentration that gives 50% inhibition – in series [2] (setting [7]) was 95.5 µM; in series [3] (setting [8]), 80.9 µM; in the series with 3T3 murine fibroblasts (setting [9]), 98 µM; in series [4] (setting [10]) it was over 100 µM.

On to `CCCCCCCCCC[n+]1ccccc1.CO/N=C(\C(=O)N[C@@H]1C(=O)N2C(C(=O)[O-])=C(COC(N)=O)CS[C@H]12)c1ccco1` [[C10Py][CFX]], for which the “Kow in comparison with the original drug (CFX)” value in series [5] is “approximately four-times greater”. Moreover, the IC50 in series [2] (setting [11]) was 16.6 µM; in series [3] (setting [11]), 23 µM; in the series with 3T3 murine fibroblasts (MTT, 1–100 µM) it was 62.5 µM; in series [4] (setting [11]), 90.3 µM. Further, in the series with 3T3 murine fibroblasts (MTT), the “Toxicity to 3T3 murine fibroblasts compared with the original drug (CFX)” value (shortened to “Toxicity … compared with the original drug (CFX)”) is listed as “more toxic”. In the series on 3T3 murine fibroblasts (MTT), the “Relative toxicity on 3T3 cells (comparison of IC50 values)” value is on record as “approximately five-times less toxic”. Further, the “Increase in water solubility relative to free CFX” value in series [6] is given as over 7.7 fold. The Water solubility in series [6] came out at 5400 µg/mL.

For the compound `CO/N=C(\C(=O)N[C@@H]1C(=O)N2C(C(=O)O)=C(COC(N)=O)CS[C@H]12)c1ccco1` [cefuroxime sodium], the Serum concentration in series [1] (single 500 mg intramuscular dose, for a period of 2.5 to 3 h) is 8000 ng/mL. Moreover, the Half-life in series [1] (single 500 mg intramuscular dose) was 1.17 h.

For `CO/N=C(\C(=O)N[C@@H]1C(=O)N2C(C(=O)O)=C(COC(N)=O)CS[C@H]12)c1ccco1` [CFX, Cefuroxime], the IC50 was 0.55 µM in series [2] (setting [7]), 0.95 µM in series [3] (setting [8]), over 100 µM in the series on 3T3 murine fibroblasts (setting [9]) and 6.42 µM in series [4] (setting [10]). Also, in series [6] (water, 37 °C), the solubility – broadly, the dissolved amount per volume that the medium holds – was under 700 µg/mL.

Regarding `CCCCCCCCCCCCCCCC[n+]1ccn(C)c1.CO/N=C(\C(=O)N[C@@H]1C(=O)N2C(C(=O)[O-])=C(COC(N)=O)CS[C@H]12)c1ccco1` [[C16MIM][CFX]], the “Octanol-water partition (Kow)” value in series [5] worked out at 1.7. In addition, the IC50 was found to be 4.02 µM in series [2] (setting [11]); 2.65 µM in series [3] (setting [11]); 13.9 µM with 3T3 murine fibroblasts (MTT, 1–100 µM); 9.23 µM in series [4] (setting [11]). In the series with 3T3 murine fibroblasts (MTT), the “Toxicity … compared with the original drug (CFX)” value is given as “more toxic”. This compound gave a Water solubility in series [6] of 11000 µg/mL.

In the case of `CCCCCC[n+]1ccccc1` [[C6Py]Br, reference compound], the IC50 (in series [2] (setting [7]); in series [3] (setting [8]); with 3T3 murine fibroblasts (setting [9]); in series [4] (setting [10])) was over 100 µM each time.

Regarding `CO/N=C(\C(=O)N[C@@H]1C(=O)N2C(C(=O)[O-])=C(COC(N)=O)CS[C@H]12)c1ccco1.CO/N=C(\C(=O)N[C@@H]1C(=O)N2C(C(=O)[O-])=C(COC(N)=O)CS[C@H]12)c1ccco1.c1cc[n+](CCCCCCCCCC[n+]2ccccc2)cc1` [[PyC10Py][CFX]2], in series [2], the “Antimicrobial activity against P. aeruginosa compared with CFX” value was “comparable activity to CFX”. In addition, the IC50 in series [2] (setting [11]) was 0.66 µM; in series [3] (setting [11]) it was 0.85 µM; with 3T3 murine fibroblasts (MTT, 1–100 µM), over 100 µM; in series [4] (setting [11]) it was 4.92 µM. Further, the “Antimicrobial activity against B. subtilis compared with CFX” value in series [3] is recorded as “comparable activity to CFX”. Further, the “Toxicity … compared with the original drug (CFX)” value in the series on 3T3 murine fibroblasts (MTT) is given as “no additional detrimental effect”. This compound yielded a Water solubility in series [6] (water, 37 °C) of 140000 µg/mL. In series [4] (times more effective than CFX), the “Antimicrobial activity against E. coli compared with CFX” value came to 1.3.

For `c1cc[n+](CCCCCCCCCC[n+]2ccccc2)cc1` [[PyC10Py]Br2, decylbispyridinium dibromide, reference compound], the IC50 is over 100 µM in series [2] (Pseudomonas aeruginosa, ATCC27853, 6 h); over 100 µM in series [3] (Bacillus subtilis, ATCC6633, 6 h); over 100 µM in the series with 3T3 murine fibroblasts (Mus musculus, Fibroblast); over 100 µM in series [4] (Escherichia coli, ATCC25922, 6 h).

On to `CCCCCCCCCCCCCCCC[n+]1ccn(C)c1` [[C16MIM]Br, reference compound], for which the 50% inhibitory concentration (IC50) in series [2] (setting [7]) worked out at 4.81 µM; in series [3] (setting [8]), 5.19 µM; in the series on 3T3 murine fibroblasts (setting [9]) it was 13.3 µM; in series [4] (setting [10]), 11.3 µM.

With `CCCCCC[n+]1ccccc1.CO/N=C(\C(=O)N[C@@H]1C(=O)N2C(C(=O)[O-])=C(COC(N)=O)CS[C@H]12)c1ccco1` [[C6Py][CFX]], the IC50 in series [2] (setting [11]) is 3.99 µM; in series [3] (setting [11]), 8.85 µM; with 3T3 murine fibroblasts (MTT, 1–100 µM), over 100 µM; in series [4] (setting [11]), 26.8 µM. Moreover, the “Toxicity … compared with the original drug (CFX)” value in the series with 3T3 murine fibroblasts (MTT) was “no additional detrimental effect”.

`CCCCCCCCCCCCCCCC[n+]1ccccc1.CO/N=C(\C(=O)N[C@H]1C(=O)N2C(C(=O)[O-])=C(COC(N)=O)CS[C@@H]12)c1ccco1` [[C16Py][CFX]]: in series [5], the “Octanol-water partition (Kow)” value is 2.5. Also, the IC50 is 4.54 µM in series [2] (setting [11]); 5.08 µM in series [3] (setting [11]); 11.7 µM in the series on 3T3 murine fibroblasts (MTT, 1–100 µM); 9.66 µM in series [4] (setting [11]). Also, the “Toxicity … compared with the original drug (CFX)” value with 3T3 murine fibroblasts (MTT) is “more toxic”. The “Increase in water solubility relative to free CFX” value in series [6] is given as over 7.7 fold. In series [6], this compound displayed a Water solubility of 5500 µg/mL.
